The source of these data is paper PMC8881610 (Nature Communications, 2022).

For orientation: Emax means the maximal effect, on the per cent scale that the assay sets.

Structures are written as SMILES.

The target of assay [1] is T1, GLP-1R (Homo sapiens, UniProt P43220, Y148A). The experiment in a line: cAMP accumulation assay, GLP-1R WT, mutant or modified constructs. It is filed as cell-based. Also on record: Flag; expressed in transfected cells; host or cells: HEK293T. As to conditions: GLP-1R Y148A, HEK293T; for Emax: HEK-293T. The gist of the method: (§1)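 HEK293T cells transiently expressing wild-type, mutant or modified human GLP-1R (HA signal peptide constructs) were used. Cells were stimulated with peptide agonists for 40 min at room temperature in HBSS with 0.5 mM IBMX and 0.1% BSA or casein. cAMP was quantified by LANCE Ultra TR-FRET (620/650 nm).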
In general terms: Changes in cAMP serve as a functional read-out for many G protein-coupled receptors.

In assay [2] the target is T2, GLP-1R (Homo sapiens, UniProt P43220, W214A). Described as above. Also on record: Flag; expressed in transfected cells; host or cells: HEK293T. The note with it: GLP-1R W214A, HEK293T; for Emax: HEK-293T. It is filed as cell-based. The gist of the method:
as §1

Another assay has as its target T3, GIPR (Homo sapiens, UniProt P48546, Q285A).
T3 sequence (P48546 22-466 Q285A): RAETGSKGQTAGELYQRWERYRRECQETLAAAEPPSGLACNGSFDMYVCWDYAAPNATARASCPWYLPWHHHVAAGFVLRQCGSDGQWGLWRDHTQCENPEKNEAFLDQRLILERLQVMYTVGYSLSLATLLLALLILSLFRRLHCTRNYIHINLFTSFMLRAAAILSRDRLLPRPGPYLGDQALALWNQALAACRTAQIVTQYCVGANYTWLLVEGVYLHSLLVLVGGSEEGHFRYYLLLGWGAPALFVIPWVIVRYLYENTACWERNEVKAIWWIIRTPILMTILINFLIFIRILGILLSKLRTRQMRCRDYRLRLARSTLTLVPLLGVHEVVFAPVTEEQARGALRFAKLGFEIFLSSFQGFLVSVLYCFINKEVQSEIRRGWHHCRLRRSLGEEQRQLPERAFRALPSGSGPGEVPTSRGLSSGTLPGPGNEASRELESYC
Briefly: Whole-cell binding assay, competition with 125I-GIP1-42. Also noted: acylated tirzepatide to the full-length or modified; Flag; expressed in transfected cells. The note with it: GIPR Q285A, CHO-K1. The procedure, abridged:
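Transiently transfected CHO-K1 cells expressing WT or mutant GIPR were washed in F-12 with 0.1% BSA or 0.1% casein and 33 mM HEPES, then incubated 2 h at 37 °C. After ice-cold PBS washes, cells were lysed and bound radioactivity counted (CPM).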

Assay [3] has as its target T1, GLP-1R. The experiment in a line: Whole-cell binding assay, competition with 125I-GLP-1(7-36)NH2. Also noted: Flag; expressed in transfected cells. The note with it: GLP-1R Y148A, CHO-K1. The protocol:
(§2) Human embryonic kidney 293 cells containing SV40 large T-antigen (HEK293T) were cultured in DMEM (Gibco) supplemented with 10% (v/v) fetal bovine serum (FBS, Gibco), 1 mM sodium pyruvate (Gibco) and 100 units/mL penicillin and 100 μg/mL streptomycin at 37 °C in 5% CO2. Chinese hamster ovary (CHO-K1) cells were cultured in F-12 (Gibco) containing 10% FBS, 100 units/mL penicillin and 100 μg/mL streptomycin at 37 °C in 5% CO2. For cAMP and receptor expression assays, HEK293T cells were seeded into 6-well cell culture plates at a density of 7 × 10^5 cells per well. After overnight incubation, cells were transfected with GIPR, GLP-1R or GCGR construct using Lipofectamine 2000 or Lipofectamine 3000 transfection reagent (Invitrogen). For whole-cell binding assay, CHO-K1 cells were seeded into 96-well fibronectin-treated cell culture plates at a density of 3 × 10^4 cells per well. After overnight incubation, cells were transfected with GIPR, GLP-1R or GCGR construct using Lipofectamine 2000 transfection reagent (Invitrogen). Following 24 h culturing, the transfected cells were ready for use.
(§3) For GLP-1R and GCGR, CHO-K1 cells (30,000 cells/well) were seeded into Isoplate-96 plates and incubated for 24 h at 37 °C in 5% CO2. The WT or mutant constructs were transiently transfected using Lipofectamine 2000 transfection reagent as previous described. They were then washed twice using F-12 with 0.1% BSA or 0.1% casein, 33 mM HEPES, and incubated for 2 h at 37 °C. […] Cells were washed three times with ice-cold PBS and lysed in PBS with 1% Triton X-100, 20 mM Tris-HCl. After addition of scintillation cocktail (PerkinElmer), radioactivity (CPM) was counted on a MicroBeta^2 microplate counter (PerkinElmer). Data were normalized to the WT response and analyzed using three-parameter logistic equation.

For assay [4], the target named is T2, GLP-1R. Described as above. Also on record: Flag; expressed in transfected cells. The note with it: GLP-1R W214A, CHO-K1. The protocol: as §2, §3
[5] abbreviates: read-out: cAMP pEC50 (converted).
The mark [6] stands for this setting: read-out: binding pIC50 (converted).

T1 sequence (P43220 24-463 Y148A): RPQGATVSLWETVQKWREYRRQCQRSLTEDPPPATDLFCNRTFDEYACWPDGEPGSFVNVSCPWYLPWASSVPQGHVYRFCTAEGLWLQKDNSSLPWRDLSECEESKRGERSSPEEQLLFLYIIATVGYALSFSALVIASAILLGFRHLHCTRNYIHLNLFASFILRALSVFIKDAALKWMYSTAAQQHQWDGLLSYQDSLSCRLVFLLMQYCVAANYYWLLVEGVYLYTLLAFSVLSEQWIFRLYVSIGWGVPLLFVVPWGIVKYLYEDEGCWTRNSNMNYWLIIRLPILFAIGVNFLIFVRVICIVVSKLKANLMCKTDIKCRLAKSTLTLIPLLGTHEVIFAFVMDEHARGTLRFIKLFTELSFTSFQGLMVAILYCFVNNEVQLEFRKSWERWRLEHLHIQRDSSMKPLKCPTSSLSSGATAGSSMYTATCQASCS
T2 sequence (P43220 24-463 W214A): as the sequence (P43220 24-463 Y148A) above, with A125Y, W191A counted along it

For the compound `CCCCCCCCCCCCCCCC(=O)N[C@@H](CCC(=O)NCCCC[C@H](NC(=O)[C@H](CC(=O)O)NC(=O)[C@H](CO)NC(=O)[C@@H](NC(=O)[C@H](Cc1ccccc1)NC(=O)[C@@H](NC(=O)CNC(=O)[C@H](CCC(N)=O)NC(=O)C(C)(C)NC(=O)[C@@H](N)Cc1c[nH]cn1)[C@@H](C)O)[C@@H](C)O)C(=O)N[C@@H](CO)C(=O)N[C@@H](CCCCN)C(=O)N[C@@H](Cc1ccc(O)cc1)C(=O)N[C@@H](CC(C)C)C(=O)N[C@@H](CC(=O)O)C(=O)N[C@@H](CCC(=O)O)C(=O)N[C@@H](CCCNC(=N)N)C(=O)N[C@@H](C)C(=O)N[C@@H](C)C(=O)N[C@@H](CCC(N)=O)C(=O)N[C@@H](CC(=O)O)C(=O)N[C@@H](Cc1ccccc1)C(=O)N[C@H](C(=O)N[C@@H](CCC(N)=O)C(=O)N[C@@H](Cc1c[nH]c2ccccc12)C(=O)N[C@@H](CC(C)C)C(=O)N[C@@H](CC(C)C)C(=O)N[C@@H](CC(=O)O)C(=O)NCC(=O)NCC(=O)N1CCC[C@H]1C(=O)N[C@@H](CO)C(=O)N[C@@H](CO)C(=O)NCC(=O)N[C@@H](C)C(=O)N1CCC[C@H]1C(=O)N1CCC[C@H]1C(=O)N1CCC[C@H]1C(=O)N[C@@H](CO)C(N)=O)C(C)C)C(=O)O` [Peptide 20], the EC50 was 0.00501 nM at GLP-1R [1] (setting [5]) and 0.00977 nM on GLP-1R [2] (setting [5]). Also, the maximal response (Emax) on GLP-1R [1] was 101 ± 1.26%; on GLP-1R [2] it was 100.4 ± 0.94%. In addition, the “binding Span” value worked out at 108.98 ± 3.60 % WT on GIPR, 8.73 ± 2.65 % WT on GLP-1R [3] and 10.25 ± 1.71 % WT at GLP-1R [4]. The IC50 at GIPR (setting [6]) is 13.5 nM; on GLP-1R [3] (setting [6]), 15.5 nM; on GLP-1R [4] (setting [6]), 17 nM.

Regarding `CC[C@H](C)[C@H](NC(=O)[C@H](CC(C)C)NC(=O)[C@H](Cc1c[nH]c2ccccc12)NC(=O)[C@H](CCC(N)=O)NC(=O)[C@@H](NC(=O)[C@H](Cc1ccccc1)NC(=O)[C@H](C)NC(=O)[C@H](CCCCNC(=O)COCCOCCNC(=O)COCCOCCNC(=O)CC[C@H](NC(=O)CCCCCCCCCCCCCCCCCCC(=O)O)C(=O)O)NC(=O)[C@H](CCC(N)=O)NC(=O)[C@H](C)NC(=O)[C@@H](NC(=O)[C@H](CCCCN)NC(=O)[C@H](CC(=O)O)NC(=O)[C@H](CC(C)C)NC(=O)C(C)(C)NC(=O)[C@@H](NC(=O)[C@H](CO)NC(=O)[C@H](Cc1ccc(O)cc1)NC(=O)[C@H](CC(=O)O)NC(=O)[C@H](CO)NC(=O)[C@@H](NC(=O)[C@H](Cc1ccccc1)NC(=O)[C@@H](NC(=O)CNC(=O)[C@H](CCC(=O)O)NC(=O)C(C)(C)NC(=O)[C@@H](N)Cc1ccc(O)cc1)[C@@H](C)O)[C@@H](C)O)[C@@H](C)CC)[C@@H](C)CC)C(C)C)C(=O)N[C@@H](C)C(=O)NCC(=O)NCC(=O)N1CCC[C@H]1C(=O)N[C@@H](CO)C(=O)N[C@@H](CO)C(=O)NCC(=O)N[C@@H](C)C(=O)N1CCC[C@H]1C(=O)N1CCC[C@H]1C(=O)N1CCC[C@H]1C(=O)N[C@@H](CO)C(N)=O` [Tirzepatide], the values for the Emax on GLP-1R [1] and on GLP-1R [2] were 102 ± 2.33% and 99.1 ± 1.05%, respectively. In addition, the figures for the “binding Span” value on GLP-1R [3] and at GLP-1R [4] were 12.31 ± 2.51 % WT and 11.88 ± 1.32 % WT, respectively.
